# Read-outs that look alike come from different tables or passages of the source.
# Columns and labels:
# [1] = tested on: thermal hyperalgesia in CCI rat model; conditions: cited from earlier work
# [2] = tested on: acetic acid‐induced writhings in male CD‐1 mice; experiment: Acetic acid‐induced writhing test in mice with PK/PD model; conditions: for interindividual variability in the k 2, percent coefficient of variation: single‐agent model
# [3] = tested on: plasma protein; conditions: cited from earlier work
# [4] = tested on: patients with diabetes with peripheral neuropathy / painful distal symmetrical polyneuropathy; conditions: cited from earlier work
# [5] = tested on: plasma protein; conditions: cited from earlier work; remark: listed apart in the source
# [6] = Population PK of trazodone and gabapentin as single agents in mice; format: in vivo; conditions: for Vd/F / k el: male, mouse, plasma; for D 1 (duration of the zero‐order absorption) / k 12 (intercompartment rate constant) / k 21 (intercompartment rate constant): male mice, fasting, population PK estimate; for Inter‐individual variability ω2 of V / Inter‐individual variability ω2 of k / Inter‐individual variability ω2 of k12: mice, population PK variance estimate
# [7] = combination model, interaction (synergism), trazodone‐gabapentin 0.075–1.5, 0.15–1.5 mg/kg
# [8] = combination model, pure additivity, trazodone‐gabapentin 0.075–1.5, 0.15–1.5 mg/kg
# [9] = combination model, pure additivity, trazodone‐gabapentin 0.5–5, 1.5–15 mg/kg
# [10] = 31 patients, oral trazodone 50 or 100 mg/day for 2 weeks
# [11] = single model, gabapentin i.p. 1.5, 5 and 15 mg/kg
# [12] = gabapentin 10, 30 and 100 mg/kg
structure (smiles),measurement,setting,value
O=c1n(CCCN2CCN(c3cccc(Cl)c3)CC2)nc2ccccn12 [Trazodone],effect on thermal hyperalgesia,[1],dose‐dependent analgesic effect
same,Interindividual variance ω2 of k2,[2]; [7],1.42
same,k 2 (potency parameter),[2]; [7],182000 M⁻¹ s⁻¹
same,Interindividual variability ω2 of k2,[2]; [8],1.43
same,k 2 (potency parameter),[2]; [8],212000 M⁻¹ s⁻¹
same,Interindividual variability ω2 of k2,[2]; [9],1.40
same,k 2 (potency parameter),[2]; [9],170000 M⁻¹ s⁻¹
same,k 2 (potency parameter),"[2]; single model, trazodone o.s. 0.075, 0.15, 0.5, 1.5, 2.5 and 4.5 mg/kg",182000 M⁻¹ s⁻¹
same,Interindividual variability ω2 of k2,"[2]; single model, trazodone o.s. 0.075-4.5 mg/kg",1.42
same,"interindividual variability in the k 2, percent coefficient of variation",[2],119
same,antinociceptive effect (number of writhes vs vehicle),[2]; trazodone alone 0.075 or 0.15 mg/kg o.s.,ineffective
same,antinociceptive effect (number of writhes vs vehicle),"[2]; trazodone alone 0.5 or 1.5 mg/kg o.s., p < 0.001",significant reduction of the writhes number
same,plasma protein binding,"[3]; mouse, ref internal unpublished data",89%
same,patients who experienced complete relief,[4]; [10],22.6%
same,patients who experienced symptomatic relief,[4]; [10],61.3%
same,effect on pain and numbness,"[4]; six patients with diabetes affected by peripheral neuropathy, 100 mg/day",good effect in pain relief and numbness
same,plasma protein binding,"[5]; human, ref internal unpublished data",97%
same,Vd/F,[6]; 10 mg/kg,5.95 L/kg
same,k el,[6]; 10 mg/kg,0.000347 s⁻¹
same,D 1 (duration of the zero‐order absorption),"[6]; trazodone 1, 3 and 10 mg/kg",0.0833 h
same,k 12 (intercompartment rate constant),"[6]; trazodone 1, 3 and 10 mg/kg",0.982 h⁻¹
same,k 21 (intercompartment rate constant),"[6]; trazodone 1, 3 and 10 mg/kg",1.51 h⁻¹
same,Inter‐individual variability ω2 of V,"[6]; trazodone 1, 3 and 10 mg/kg",0.0526
same,Inter‐individual variability ω2 of k,"[6]; trazodone 1, 3 and 10 mg/kg",0.00899
same,Inter‐individual variability ω2 of k12,"[6]; trazodone 1, 3 and 10 mg/kg",0.577
NCC1(CC(=O)O)CCCCC1 [Gabapentin],Interindividual variance ω2 of k2,[2]; [7],1.78
same,k 2 (potency parameter),[2]; [7],817 M⁻¹ s⁻¹
same,Interindividual variability ω2 of k2,[2]; [8],1.67
same,k 2 (potency parameter),[2]; [8],1350 M⁻¹ s⁻¹
same,Interindividual variability ω2 of k2,[2]; [9],1.71
same,k 2 (potency parameter),[2]; [9],667 M⁻¹ s⁻¹
same,antinociceptive effect (number of writhes vs vehicle),[2]; gabapentin alone 1.5 mg/kg i.p.,ineffective
same,antinociceptive effect (number of writhes vs vehicle),"[2]; gabapentin alone 5 or 15 mg/kg i.p., p < 0.001",significant reduction of the writhes number
same,Interindividual variability ω2 of k2,[2]; [11],1.97
same,k 2 (potency parameter),[2]; [11],765 M⁻¹ s⁻¹
same,"interindividual variability in the k 2, percent coefficient of variation",[2],140
same,plasma protein binding,[3]; mice,not protein‐bound
same,plasma protein binding,[5]; humans,not protein‐bound
same,D 1 (duration of the zero‐order absorption),[6]; [12],0.167 h
same,k 12 (intercompartment rate constant),[6]; [12],0.935 h⁻¹
same,k 21 (intercompartment rate constant),[6]; [12],0.110 h⁻¹
same,Inter‐individual variability ω2 of V,[6]; [12],0.00287
same,Inter‐individual variability ω2 of k,[6]; [12],0.337
same,Inter‐individual variability ω2 of k12,[6]; [12],1.43
same,Vd/F,[6]; 100 mg/kg,0.846 L/kg
same,k el,[6]; 100 mg/kg,3.11e-05 s⁻¹
